This note sets out measurements from patent US20250163061A1 (Bala Therapeutics, Inc., priority 2021, published 2025).

Bounds are passed on as bounds.

Common to all, as to assay type: cell-based
Data set [1] relates to MV4-11. As to the kind of experiment: MV4-11 cellular growth inhibition assay (CellTiter-Glo). The following applies: Homo sapiens, 168 h, MV4-11 cells, 7 days of incubation. On the procedure: (§1) HEK293 (Institute of Cytology Russian Academy of Science), MV4-11 (ATCC, CRL-9591), MOLM-13 (AcceGen, ABC-TC517S) were seeded at a density of 500 cells per well (HEK293) and 2000 cells per well (MV4-11, MOLM-13) in a 384-well clear bottom plate (Greiner Cat #781090) in 45 μl total volume of DMEM (PanEco, Cat #C420, Russia) or RPMI (PanEco, Cat #C330, Russia) with 10% FBS (HyClone Cat #SV30160.03). HEK293 were allowed to adhere overnight at 37° C., 5% CO2. 500× compounds solutions in DMSO (Sigma Cat #D2650) were prepared into Cmpnds plate (Diamond Well Plate, Axigen, Cat #P-384-120SQ-C-S) and DMSO only control was included. 1 μl of 500× compounds (Cmpnds plate) was added to 49 μl of culture medium into Dilution plate (Diamond Well Plate, Axigen, Cat #P-384-120SQ-C-S), mixed and then 5 μl of 10× compounds solutions were transferred to cells followed by centrifugation at 100 g for 1 min. Final DMSO concentration was 0.2%. After 3 days of incubation, 10 μl of 1× compounds were added to cells. After 7 days of incubation, 12 μl of CellTiter-Glo (Promega, CAT #G7572) were added to the cells, plate was centrifuged at 100 g for 1 min and luminescence signal was measured using Microplate Reader (CLARIOStar).

The test system of data set [2] is MOLM-13. As to the kind of experiment: MOLM-13 cellular growth inhibition assay (CellTiter-Glo). The conditions noted are these: Homo sapiens, 168 h, MOLM-13 cells, 7 days of incubation. On the procedure:
as §1

Data set [3] is described as follows: HEK293 cellular growth inhibition assay (CellTiter-Glo). The following applies: human, HEK293 cells, 7 days of incubation. As for the experimental part:
as §1

For `Cc1c(CN2CCC3(CC2)CN(c2ncnc4ncc(CC(F)(F)F)nc24)C3)ccc2c1cc(C#N)n2CC(C)N1CCN(S(C)(=O)=O)CC1` (stereo not drawn) [Compound 42, 4-Methyl-1-[2-(4-methylsulfonylpiperazin-1-yl)propyl]-5-[[2-[6-(2,2,2-trifluoroethyl)pteridin-4-yl]-2,7-diazaspiro[3.5]nonan-7-yl]methyl]indole-2-carbonitrile], the CC50 in data set [1] and in data set [2] was 100 to 500 nM each time. In data set [3], this compound showed a CC50 at 7 days of at most 2000 nM.
For `Cc1c(CN2CCC3(CC2)CN(c2ncnc4ccc(CC(F)(F)F)cc24)C3)ccc2c1cc(C#N)n2CC1CNC(=O)CO1` (stereo not drawn) [Compound 82, 4-Methyl-1-[(5-oxomorpholin-2-yl)methyl]-5-({2-[6-(2,2,2-trifluoroethyl)quinazolin-4-yl]-2,7-diazaspiro[3.5]non-7-yl}methyl)-1H-indole-2-carbonitrile], the CC50 in data set [1] was at most 100 nM; in data set [2], 100 to 500 nM. The compound also yielded a CC50 at 7 days in data set [3] of 2000 to 5000 nM.
The corresponding values for `Cc1c(CN2CCC3(CC2)CN(c2nncc4ccc(CC(F)(F)F)cc24)C3)ccc2c1cc(C#N)n2CC(C)N1CCN(S(C)(=O)=O)CC1` (stereo not drawn) [Compound 79, 4-Methyl-1-[2-(4-methylsulfonylpiperazin-1-yl)propyl]-5-[[2-[7-(2,2,2-trifluoroethyl)phthalazin-1-yl]-2,7-diazaspiro[3.5]nonan-7-yl]methyl]indole-2-carbonitrile] are 500 to 1000 nM, 1000 to 5000 nM and 5000 to 10000 nM.
For `Cc1c(CN2CCC3(CC2)CN(c2ncnc4ccc(CC(F)(F)F)cc24)C3)ccc2c1cc(C#N)n2CC1CCC(=O)NC1` (stereo not drawn) [Compound 72, 4-Methyl-1-[(6-oxopiperidin-3-yl)methyl]-5-({2-[6-(2,2,2-trifluoroethyl)quinazolin-4-yl]-2,7-diazaspiro[3.5]non-7-yl}methyl)-1H-indole-2-carbonitrile], in that order: 100 to 500 nM, 500 to 1000 nM and at most 2000 nM.
Take `Cc1c(CN2CCC3(CC2)CN(c2ncnc4ccc(CC(F)(F)F)cc24)C3)ccc2c1cc(C#N)n2CC1CCNC(=O)C1` (stereo not drawn) [Compound 22, 4-Methyl-1-[(2-oxopiperidin-4-yl)methyl]-5-({2-[6-(2,2,2-trifluoroethyl)quinazolin-4-yl]-2,7-diazaspiro[3.5]non-7-yl}methyl)-1H-indole-2-carbonitrile]: the values for the CC50 in data set [1] and in data set [2] were 100 to 500 nM and 500 to 1000 nM, respectively. Also, the CC50 at 7 days in data set [3] fell in the range of 2000 to 5000 nM.
For `Cc1c(CN2CCC3(CC2)CN(c2ncnc4ccc(CC(F)(F)F)cc24)C3)ccc2c1cc(C#N)n2CC1CCNC(=O)CC1` (stereo not drawn) [Compound 5, 4-Methyl-1-[(7-oxoazepan-4-yl)methyl]-5-[[2-[6-(2,2,2-trifluoroethyl)quinazolin-4-yl]-2,7-diazaspiro[3.5]nonan-7-yl]methyl]indole-2-carbonitrile], in that order: 100 to 500 nM, 500 to 1000 nM and at most 2000 nM.
The corresponding values for `Cc1c(CN2CCC3(CC2)CN(c2ncnc4ccc(CC(F)(F)F)cc24)C3)ccc2c1cc(C#N)n2C[C@H]1CNC(=O)CO1` [Compound 101, 4-Methyl-1-{[(2R)-5-oxomorpholin-2-yl]methyl}-5-({2-[6-(2,2,2-trifluoroethyl)quinazolin-4-yl]-2,7-diazaspiro[3.5]non-7-yl}methyl)-1H-indole-2-carbonitrile] are 100 to 500 nM, 1000 to 5000 nM and 2000 to 5000 nM.
The corresponding values for `Cc1c(CN2CCC3(CC2)CN(c2ncnc4ccc(CC(F)(F)F)cc24)C3)ccc2c1cc(C#N)n2C(C)CCN1CCN(S(C)(=O)=O)CC1` (stereo not drawn) [Compound 13, 4-Methyl-1-{1-methyl-3-[4-(methylsulfonyl)piperazin-1-yl]propyl}-5-({2-[6-(2,2,2-trifluoroethyl)quinazolin-4-yl]-2,7-diazaspiro[3.5]non-7-yl}methyl)-1H-indole-2-carbonitrile] are at most 100 nM, 500 to 1000 nM and 5000 to 10000 nM.
With `CN(C)C/C=C/C(=O)N1CCN(CCn2c(C#N)cc3cc(CN4CCC5(CC4)CN(c4ncnc6ccc(CC(F)(F)F)cc46)C5)ccc32)CC1` [Compound 99], the CC50 in data set [1] and in data set [2] was 1000 to 5000 nM in each case. In data set [3], this compound gave a half-maximal cytotoxic concentration (CC50) at 7 days of at most 2000 nM.
`C=CC(=O)N1CCN(CCCCn2c(C#N)cc3c(C)c(CN4CCC5(CC4)CN(c4ncnc6ccc(CC(F)(F)F)cc46)C5)ccc32)CC1` [Compound 65, 1-[4-(4-Acryloylpiperazin-1-yl)butyl]-4-methyl-5-({2-[6-(2,2,2-trifluoroethyl)quinazolin-4-yl]-2,7-diazaspiro[3.5]non-7-yl}methyl)-1H-indole-2-carbonitrile]: the CC50 in data set [1] is 100 to 500 nM; in data set [2] it was 1000 to 5000 nM. The compound also returned a CC50 at 7 days in data set [3] of at most 2000 nM.
For `Cc1c(CN2CCC3(CC2)CN(c2ncnc4ccc(CC(F)(F)F)c(F)c24)C3)ccc2c1cc(C#N)n2CC1CNC(=O)CO1` (stereo not drawn) [Compound 12, 5-[[2-[5-Fluoro-6-(2,2,2-trifluoroethyl)quinazolin-4-yl]-2,7-diazaspiro[3.5]nonan-7-yl]methyl]-4-methyl-1-[(5-oxomorpholin-2-yl)methyl]indole-2-carbonitrile], in that order: 100 to 500 nM, 500 to 1000 nM and at most 2000 nM.
In the case of `Cc1c(CN2CCC3(CC2)CN(c2ncnc4ccc(CC(F)(F)F)cc24)C3)ccc2c1cc(C#N)n2CC1CNC(=O)C(C)O1` (stereo not drawn) [Compound 7, 4-Methyl-1-[(6-methyl-5-oxo-morpholin-2-yl)methyl]-5-[[2-[6-(2,2,2-trifluoroethyl)quinazolin-4-yl]-2,7-diazaspiro[3.5]nonan-7-yl]methyl]indole-2-carbonitrile], the figures for the CC50 in data set [1] and in data set [2] were at most 100 nM and 100 to 500 nM, respectively. In data set [3], this compound gave a CC50 at 7 days of 2000 to 5000 nM.
For `CS(=O)(=O)N1CCN(CCn2c(C#N)cc3cc(CN4CCC5(CC4)CN(c4ncnc6ccc(CC(F)(F)F)cc46)C5)ccc32)CC1` [Compound 91, 1-{2-[4-(Methylsulfonyl)piperazin-1-yl]ethyl}-5-({2-[6-(2,2,2-trifluoroethyl)quinazolin-4-yl]-2,7-diazaspiro[3.5]non-7-yl}methyl)-1H-indole-2-carbonitrile], in that order: 500 to 1000 nM, 1000 to 5000 nM and 5000 to 10000 nM.
For `Cc1c(CN2CCC3(CC2)CN(c2ncnc4ccc(CC(F)(F)F)cc24)C3)ccc2c1cc(C#N)n2CCCCN1CCN(S(C)(=O)=O)CC1` [Compound 44, 4-Methyl-1-{4-[4-(methylsulfonyl)piperazin-1-yl]butyl}-5-({2-[6-(2,2,2-trifluoroethyl)quinazolin-4-yl]-2,7-diazaspiro[3.5]non-7-yl}methyl)-1H-indole-2-carbonitrile], in that order: 1000 to 5000 nM, above 5000 nM and 2000 to 5000 nM.
The corresponding values for `N#Cc1cc2cc(CN3CCC4(CC3)CN(c3ncnc5ccc(CC(F)(F)F)cc35)C4)ccc2[nH]1` [Compound 98] are 500 to 1000 nM, 1000 to 5000 nM and 5000 to 10000 nM.
Turning to `CC(=O)NC12CC(Cn3c(C#N)cc4c(C)c(CN5CCC6(CC5)CN(c5ncnc7ccc(CC(F)(F)F)cc57)C6)ccc43)(C1)C2` [Compound 59, N-[3-[[2-Cyano-4-methyl-5-[[2-[6-(2,2,2-trifluoroethyl)quinazolin-4-yl]-2,7-diazaspiro[3.5]nonan-7-yl]methyl]indol-1-yl]methyl]-1-bicyclo[1.1.1]pentanyl]acetamide], the CC50 in data set [1] and in data set [2] was at most 100 nM each time. For the same compound, the CC50 at 7 days in data set [3] fell in the range of 2000 to 5000 nM.
As for `Cc1c(CN2CCC3(CC2)CN(c2ncnc4ncc(CC(F)(F)F)cc24)C3)ccc2c1cc(C#N)n2CC(C)N1CCN(S(C)(=O)=O)CC1` (stereo not drawn) [Compound 89, 4-Methyl-1-{2-[4-(methylsulfonyl)piperazin-1-yl]propyl}-5-({2-[6-(2,2,2-trifluoroethyl)pyrido[2,3-d]pyrimidin-4-yl]-2,7-diazaspiro[3.5]non-7-yl}methyl)-1H-indole-2-carbonitrile], the figures for the CC50 in data set [1] and in data set [2] were at most 100 nM and 500 to 1000 nM, respectively. This compound also showed a CC50 at 7 days in data set [3] of at most 2000 nM.
Regarding `C=CC(=O)N1CCN(C(C)Cn2c(C#N)cc3c(C)c(CN4CCC5(CC4)CN(c4ncnc6ccc(CC(F)(F)F)cc46)C5)ccc32)CC1` (stereo not drawn) [Compound 63, 1-[2-(4-Acryloylpiperazin-1-yl)propyl]-4-methyl-5-({2-[6-(2,2,2-trifluoroethyl)quinazolin-4-yl]-2,7-diazaspiro[3.5]non-7-yl}methyl)-1H-indole-2-carbonitrile], the 50% cytotoxic concentration (CC50) in data set [1] and in data set [2] was 100 to 500 nM in each case. The CC50 at 7 days in data set [3] was 2000 to 5000 nM.
Turning to `Cc1c(CN2CCC3(CC2)CN(c2ncnc4ccc(CC(F)(F)F)cc24)C3)ccc2[nH]c(C#N)cc12` [Compound 68, 4-Methyl-5-({2-[6-(2,2,2-trifluoroethyl)quinazolin-4-yl]-2,7-diazaspiro[3.5]non-7-yl}methyl)-1H-indole-2-carbonitrile], the values for the CC50 in data set [1] and in data set [2] were 100 to 500 nM and 500 to 1000 nM, respectively. For the same compound, the CC50 at 7 days in data set [3] fell in the range of 2000 to 5000 nM.
